Results from patent US8247211B2, “Glycopeptide antibiotics” (American Cyanamid Company, priority 2001, dated 2012).
≈ marks a conversion by molar mass, not a printed value.

Key:
Staphylococcus sp. = assay: In vitro antibacterial evaluation: minimum inhibitory concentration (MIC), broth dilution method; type: cell-based; details: for MIC Staphylococcus aureus (ATCC 29213): strain ATCC 29213; for MIC Staphylococcus aureus (GC 1131): strain GC 1131; for MIC Staphylococcus aureus (GC 3051): strain GC 3051; for MIC Staphylococcus aureus (GC 3053): strain GC 3053; for MIC Staphylococcus aureus (GC 4541): strain GC 4541; for MIC Staphylococcus aureus (GC 4542): strain GC 4542; for MIC Staphylococcus aureus-SMITH (GC 4543): strain GC 4543; for MIC Staphylococcus aureus (GC 4544): strain GC 4544; for MIC Staphylococcus aureus (GC 4545): strain GC 4545; for MIC Staphylococcus haemolyticus (GC 4546): strain GC 4546; for MIC Coagulase Negative Staphylococcus (GC 4547): strain GC 4547; for MIC Coagulase Negative Staphylococcus (GC 4548): strain GC 4548; for MIC Coagulase Negative Staphylococcus (GC 4549): strain GC 4549; for MIC Coagulase Negative Staphylococcus (GC 4551): strain GC 4551; for MIC Coagulase Negative Staphylococcus (GC 6257): strain GC 6257
How it was run: (§1)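 An MIC is reported for each organism as the least concentration giving inhibition, using broth dilution over 64-0.06 μg/mL with a 5×10^5 CFU/mL inoculum.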

Escherichia coli = assay: as above; type: cell-based; details: 5×10^5 CFU/mL, 18 hours at 35° C.
How it was run: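 MIC read as lowest drug level preventing visible growth. Organisms at 5×10^5 CFU/mL were exposed to a 64-0.06 μg/mL dilution series in Muller-Hinton II […] following NCCLS broth dilution standard M7-A2.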

Streptococcus sp. = assay: as above; type: cell-based; details: broth dilution, 5×10^5 CFU/mL, 18 hours at 35° C.
How it was run: as §1

Enterococcus sp. = assay: as above; type: cell-based; details: broth dilution, 5×10^5 CFU/mL, 18 hours at 35° C.
How it was run: as §1

[1] = tested on: Staphylococcus aureus-SMITH (GC 4543); assay: Acute lethal infection in mice (ED50); type: in vivo; details: female CD-1 mice, intraperitoneal challenge, intravenous dose 30 min. after infection, 7 day survival ratios
Experimental: The therapeutic effects of glycopeptide antibiotics of Formula I are determined against acute lethal infections with S. aureus (strain Smith), a penicillin resistant strain of S. pneumoniae (strain GC 1894), and a vancomycin resistant strain of E. fecalis (strain GC 6189 and GC 2246). Female mice, CD-1 (Charles River Laboratories), 20 +1-2 gm, are challenged by intraperitoneal injection of sufficient bacteria (suspended in Trypticase Soy Broth or hog gastric mucin) to kill non-treated controls within 24-48 hr. Antibacterial agents, contained in 0.2 mL of saline or 5% dextrose solution, are administered intravenously 30 min. after infection. Five mice are treated at each dose level. The 7 day survival ratios from 3 separate tests are pooled for calculation of median effective dose (ED50).

[2] = broth dilution, 18 hours at 35° C.

## CC(c1ccccc1)C1NC(=O)CNC(=O)C(CO)NC(=O)C(C(O)C2CNC(=N)N2C2OC(CO)C(O)C(O)C2O)NC(=O)C(C(O)C2CNC(=N)N2)NC(=O)C(Cc2ccc(OC3OC(CO)C(OC4OC5COC(CC6CCN(C(=O)OCc7ccccc7)CC6)OC5C(O)C4O)C(O)C3O)cc2)NC1=O (stereo not drawn) [Example 113]
Staphylococcus sp.
  MIC Staphylococcus aureus (ATCC 29213): 1 µg/mL (≈ 0.65 µM)
  MIC Staphylococcus aureus (GC 1131): 2 µg/mL (≈ 1.3 µM)
  MIC Staphylococcus aureus (GC 3051): 1 µg/mL (≈ 0.65 µM)
  MIC Staphylococcus aureus (GC 3053): 1 µg/mL (≈ 0.65 µM)
  MIC Staphylococcus aureus (GC 4541): 1 µg/mL (≈ 0.65 µM)
  MIC Staphylococcus aureus (GC 4542): 1 µg/mL (≈ 0.65 µM)
  MIC Staphylococcus aureus (GC 4544): 2 µg/mL (≈ 1.3 µM)
  MIC Staphylococcus aureus (GC 4545): 1 µg/mL (≈ 0.65 µM)
  MIC Staphylococcus haemolyticus (GC 4546): 1 µg/mL (≈ 0.65 µM)
  MIC Coagulase Negative Staphylococcus (GC 4547): 1 µg/mL (≈ 0.65 µM)
  MIC Coagulase Negative Staphylococcus (GC 4548): 0.5 µg/mL (≈ 0.325 µM)
  MIC Coagulase Negative Staphylococcus (GC 4549): 1 µg/mL (≈ 0.65 µM)
  MIC Coagulase Negative Staphylococcus (GC 4551): 1 µg/mL (≈ 0.65 µM)
  MIC Coagulase Negative Staphylococcus (GC 6257): 0.5 µg/mL (≈ 0.325 µM)
Staphylococcus sp.; [2]
  MIC Staphylococcus aureus (ATCC 29213): 1 µg/mL (≈ 0.65 µM)
  MIC Staphylococcus aureus (GC 1131): 2 µg/mL (≈ 1.3 µM)
  MIC Staphylococcus aureus (GC 3051): 1 µg/mL (≈ 0.65 µM)
  MIC Staphylococcus aureus (GC 3053): 1 µg/mL (≈ 0.65 µM)
  MIC Staphylococcus aureus (GC 4541): 1 µg/mL (≈ 0.65 µM)
  MIC Staphylococcus aureus (GC 4542): 1 µg/mL (≈ 0.65 µM)
  MIC Staphylococcus aureus-SMITH (GC 4543): 1 µg/mL (≈ 0.65 µM)
  MIC Staphylococcus aureus (GC 4544): 2 µg/mL (≈ 1.3 µM)
  MIC Staphylococcus aureus (GC 4545): 1 µg/mL (≈ 0.65 µM)
  MIC Staphylococcus haemolyticus (GC 4546): 1 µg/mL (≈ 0.65 µM)
  MIC Coagulase Negative Staphylococcus (GC 4547): 1 µg/mL (≈ 0.65 µM)
  MIC Coagulase Negative Staphylococcus (GC 4548): 0.5 µg/mL (≈ 0.325 µM)
  MIC Coagulase Negative Staphylococcus (GC 4549): 1 µg/mL (≈ 0.65 µM)
  MIC Coagulase Negative Staphylococcus (GC 4551): 1 µg/mL (≈ 0.65 µM)
  MIC Coagulase Negative Staphylococcus (GC 6257): 0.5 µg/mL (≈ 0.325 µM)
Staphylococcus sp.; 18 hours at 35° C.
  MIC Staphylococcus aureus-SMITH (GC 4543): 1 µg/mL (≈ 0.65 µM)
Escherichia coli
  MIC Escherichia coli (ATCC 25922): 32 µg/mL (≈ 20.8 µM)
  MIC Escherichia coli (GC 4559): 32 µg/mL (≈ 20.8 µM)
  MIC Escherichia coli (GC 4560): 1 µg/mL (≈ 0.65 µM)
Streptococcus sp.
  MIC Streptococcus agalactiae (GC 4564): 0.12 µg/mL (≈ 0.078 µM)
  MIC Streptococcus pneumoniae (GC 1894): <0.06 µg/mL
  MIC Streptococcus pneumoniae (GC 4565): <0.06 µg/mL
  MIC Streptococcus pneumonine (ATCC 6301): <0.06 µg/mL
  MIC Streptococcus pyogenes (GC 4563): <0.06 µg/mL
Enterococcus sp.
  MIC Enterococccus avium (GC 4558): 2 µg/mL (≈ 1.3 µM)
  MIC Enterococccus faecalis (ATCC 29212): 2 µg/mL (≈ 1.3 µM)
  MIC Enterococccus faecalis (GC 2691): 4 µg/mL (≈ 2.6 µM)
  MIC Enterococccus faecalis (GC 3059): 2 µg/mL (≈ 1.3 µM)
  MIC Enterococccus faecalis (GC 4552): 2 µg/mL (≈ 1.3 µM)
  MIC Enterococccus faecalis (GC 4553): 2 µg/mL (≈ 1.3 µM)
  MIC Enterococccus faecalis (GC 4554): 2 µg/mL (≈ 1.3 µM)
  MIC Enterococccus faecalis (GC 6189): 2 µg/mL (≈ 1.3 µM)
  MIC Enterococccus faecium (GC 2243): 2 µg/mL (≈ 1.3 µM)
  MIC Enterococccus faecium (GC 4556): 2 µg/mL (≈ 1.3 µM)
  MIC Enterococccus faecium (GC 4557): 2 µg/mL (≈ 1.3 µM)
  MIC Enterococcus faecalis (GC 2242): 4 µg/mL (≈ 2.6 µM)
[1]
  median effective dose (ED50), Staphylococcus aureus-SMITH (GC 4543): 0.26 mg/kg

## CC(c1ccccc1)C1NC(=O)CNC(=O)C(CO)NC(=O)C(C(O)C2CNC(=N)N2C2OC(CO)C(O)C(O)C2O)NC(=O)C(C(O)C2CNC(=N)N2)NC(=O)C(Cc2ccc(OC3OC(CO)C(OC4OC5COC(Cc6ccc(Cl)cc6)OC5C(O)C4O)C(O)C3O)cc2)NC1=O (stereo not drawn) [Example 120, Cyclo[glycyl-β-methylphenylalanyl-O-[4-O-[4,6-O-(4-chlorophenethylidene)hexopyranosyl]-hexopyranosyl]tyrosyl-3-(2-iminoimidazolidin-4-yl)seryl-3-(3-hexopyranosyl-2-iminoimidazolidin-4-yl)serylseryl]]
Staphylococcus sp.
  MIC Staphylococcus aureus (ATCC 29213): <0.5 µg/mL
  MIC Staphylococcus aureus (GC 1131): <0.5 µg/mL
  MIC Staphylococcus aureus (GC 3051): <0.5 µg/mL
  MIC Staphylococcus aureus (GC 3053): 1 µg/mL (≈ 0.698 µM)
  MIC Staphylococcus aureus (GC 4541): <0.5 µg/mL
  MIC Staphylococcus aureus (GC 4542): <0.5 µg/mL
  MIC Staphylococcus aureus (GC 4544): <0.5 µg/mL
  MIC Staphylococcus aureus (GC 4545): <0.5 µg/mL
  MIC Staphylococcus haemolyticus (GC 4546): <0.5 µg/mL
  MIC Coagulase Negative Staphylococcus (GC 4547): 1 µg/mL (≈ 0.698 µM)
  MIC Coagulase Negative Staphylococcus (GC 4548): <0.5 µg/mL
  MIC Coagulase Negative Staphylococcus (GC 4549): <0.5 µg/mL
  MIC Coagulase Negative Staphylococcus (GC 4551): <0.5 µg/mL
  MIC Coagulase Negative Staphylococcus (GC 6257): <0.5 µg/mL
Staphylococcus sp.; [2]
  MIC Staphylococcus aureus (ATCC 29213): <0.5 µg/mL
  MIC Staphylococcus aureus (GC 1131): <0.5 µg/mL
  MIC Staphylococcus aureus (GC 3051): <0.5 µg/mL
  MIC Staphylococcus aureus (GC 3053): 1 µg/mL (≈ 0.698 µM)
  MIC Staphylococcus aureus (GC 4541): <0.5 µg/mL
  MIC Staphylococcus aureus (GC 4542): <0.5 µg/mL
  MIC Staphylococcus aureus-SMITH (GC 4543): <0.5 µg/mL
  MIC Staphylococcus aureus (GC 4544): <0.5 µg/mL
  MIC Staphylococcus aureus (GC 4545): <0.5 µg/mL
  MIC Staphylococcus haemolyticus (GC 4546): <0.5 µg/mL
  MIC Coagulase Negative Staphylococcus (GC 4547): 1 µg/mL (≈ 0.698 µM)
  MIC Coagulase Negative Staphylococcus (GC 4548): <0.5 µg/mL
  MIC Coagulase Negative Staphylococcus (GC 4549): <0.5 µg/mL
  MIC Coagulase Negative Staphylococcus (GC 4551): <0.5 µg/mL
  MIC Coagulase Negative Staphylococcus (GC 6257): <0.5 µg/mL
Staphylococcus sp.; 18 hours at 35° C.
  MIC Staphylococcus aureus-SMITH (GC 4543): <0.5 µg/mL
Escherichia coli
  MIC Escherichia coli (ATCC 25922): 16 µg/mL (≈ 11.2 µM)
  MIC Escherichia coli (GC 4559): 16 µg/mL (≈ 11.2 µM)
  MIC Escherichia coli (GC 4560): <0.5 µg/mL
Streptococcus sp.
  MIC Streptococcus agalactiae (GC 4564): <0.5 µg/mL
  MIC Streptococcus pneumoniae (GC 1894): <0.5 µg/mL
  MIC Streptococcus pneumoniae (GC 4565): <0.5 µg/mL
  MIC Streptococcus pneumonine (ATCC 6301): <0.5 µg/mL
  MIC Streptococcus pyogenes (GC 4563): <0.5 µg/mL
Enterococcus sp.
  MIC Enterococccus avium (GC 4558): 1 µg/mL (≈ 0.698 µM)
  MIC Enterococccus faecalis (ATCC 29212): 1 µg/mL (≈ 0.698 µM)
  MIC Enterococccus faecalis (GC 2691): 1 µg/mL (≈ 0.698 µM)
  MIC Enterococccus faecalis (GC 3059): 1 µg/mL (≈ 0.698 µM)
  MIC Enterococccus faecalis (GC 4552): 1 µg/mL (≈ 0.698 µM)
  MIC Enterococccus faecalis (GC 4553): 1 µg/mL (≈ 0.698 µM)
  MIC Enterococccus faecalis (GC 4554): 1 µg/mL (≈ 0.698 µM)
  MIC Enterococccus faecalis (GC 6189): 1 µg/mL (≈ 0.698 µM)
  MIC Enterococccus faecium (GC 2243): 1 µg/mL (≈ 0.698 µM)
  MIC Enterococccus faecium (GC 4556): 1 µg/mL (≈ 0.698 µM)
  MIC Enterococccus faecium (GC 4557): 1 µg/mL (≈ 0.698 µM)
  MIC Enterococcus faecalis (GC 2242): 1 µg/mL (≈ 0.698 µM)
[1]
  median effective dose (ED50), Staphylococcus aureus-SMITH (GC 4543): 0.06 mg/kg
